# Assays:
# Test in all cases: relative viability (nuclei count vs DMSO), 5 days (fraction); higher = more cells survive
# Alpelisib + Pictilisib = compound: Cc1nc(NC(=O)N2CCC[C@H]2C(N)=O)sc1-c1ccnc(C(C)(C)C(F)(F)F)c1 [Alpelisib] + CS(=O)(=O)N1CCN(Cc2cc3nc(-c4cccc5[nH]ncc45)nc(N4CCOCC4)c3s2)CC1 [Pictilisib] (partner 1 µM)
# How it was run: (§1)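 For relative viability, nuclei counts in treated wells were divided by those in vehicle wells. Lung cancer cell lines had been pin-tool dosed in 1536-well plates the day after seeding and cultured for 5 days, then fixed and stained in one step (final 0.05% Triton X-100, 1% formaldehyde, 1 ug/ml Hoechst) and imaged at 4×. Doses were one drug alone or a fixed anchor-drug dose plus five library-drug doses (not always all listed) in √10 steps, and values are duplicate-plate medians.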
# Vemurafenib + Decitabine = compound: CCCS(=O)(=O)Nc1ccc(F)c(C(=O)c2c[nH]c3ncc(-c4ccc(Cl)cc4)cc23)c1F [Vemurafenib] + Nc1ncn([C@H]2C[C@H](O)[C@@H](CO)O2)c(=O)n1 [Decitabine] (partner 2 µM)
# How it was run: as §1
# OSI-027 + Decitabine = compound: COc1cccc2cc(-c3nc([C@H]4CC[C@H](C(=O)O)CC4)n4ncnc(N)c34)[nH]c12 [OSI-027] + Nc1ncn([C@H]2C[C@H](O)[C@@H](CO)O2)c(=O)n1 [Decitabine] (partner 2 µM)
# How it was run: as §1
# Vemurafenib + Lapatinib = compound: CCCS(=O)(=O)Nc1ccc(F)c(C(=O)c2c[nH]c3ncc(-c4ccc(Cl)cc4)cc23)c1F [Vemurafenib] + CS(=O)(=O)CCNCc1ccc(-c2ccc3ncnc(Nc4ccc(OCc5cccc(F)c5)c(Cl)c4)c3c2)o1 [Lapatinib] (partner 2 µM)
# How it was run: as §1
cell line,measurement,setting,value
UMC-11,relative viability,Alpelisib + Pictilisib; first compound 0.04 µM,0.832
same,relative viability,Alpelisib + Pictilisib; first compound 0.1265 µM,0.883
same,relative viability,Alpelisib + Pictilisib; first compound 0.4 µM,0.877
same,relative viability,Alpelisib + Pictilisib; first compound 1.265 µM,0.922
same,relative viability,Alpelisib + Pictilisib; first compound 4 µM,0.772
same,relative viability,Vemurafenib + Decitabine; first compound 0.03162 µM,0.568
same,relative viability,Vemurafenib + Decitabine; first compound 0.1 µM,0.595
same,relative viability,Vemurafenib + Decitabine; first compound 1 µM,0.545
same,relative viability,OSI-027 + Decitabine; first compound 0.01 µM,0.612
same,relative viability,OSI-027 + Decitabine; first compound 0.03162 µM,0.647
same,relative viability,OSI-027 + Decitabine; first compound 0.1 µM,0.52
same,relative viability,OSI-027 + Decitabine; first compound 0.3162 µM,0.492
same,relative viability,OSI-027 + Decitabine; first compound 1 µM,0.417
same,relative viability,Vemurafenib + Lapatinib; first compound 0.03162 µM,0.698
same,relative viability,Vemurafenib + Lapatinib; first compound 0.1 µM,0.956
same,relative viability,Vemurafenib + Lapatinib; first compound 0.3162 µM,0.73
same,relative viability,Vemurafenib + Lapatinib; first compound 1 µM,0.625
